Experimental data from patent publication US11708283B2, “Metal-chelating compositions and their use in methods of removing or inhibiting barium scale” (CORNELL UNIVERSITY, priority 2018, dated 2023).

What was measured:
[1] = Dissolution of barium sulfate suspension (GFAAS); conditions: for BaSO4 dissolved: 30 minutes
Method: First, a suspension of BaSO4 in pH 8 NaHCO3 was formed by combining Ba(NO3)2 (4.53 mM) with excess Na2SO4 (13.48 mM), simulating the mixing of incompatible waters that produces BaSO4 scale in petroleum operations. The resulting BaSO4 suspension was treated with ligand (5 mM), and the amount of dissolved Ba^2+ was measured by GFAAS.
More specifically. BaSO4 dissolution experiments at pH 8 were performed in NaHCO3 (1 M, pH=7.9-8.0); dissolution studies at pH 11 were performed in Na2CO3 (1 M, pH adjusted to 10.98 using concentrated HCl). […] The concentration of the DOTA stock solution was calculated from the mass of the ligand used (255.5 mg). A solution of Na2SO4 (293 mM) was prepared in water. The barium source for this experiment was an ICP standard solution of Ba(NO3)2 (72.99 mM; 10023 μg/mL) in 2% v/v HNO3.
Dissolution studies were carried out in 2 mL borosilicate vials equipped with identical magnetic stir bars (6.4×3 mm). Each BaSO4 suspension was prepared independently by mixing Ba(NO3)2 and Na2SO4 in 1 M NaHCO3 or Na2CO3 to give final concentrations of 4.53 mM (621,426 μg/L) and 13.48 mM, respectively. Dissolution was initiated by the addition of an aliquot of ligand (5 mM final concentration, 1.1 equiv with respect to Ba^2+) to each suspension. Controls (pH 8) received an aliquot of water instead of ligand. The suspensions were stirred at room temperature (22±1° C.) at a rate of 550 RPM. At time points of 5 min (pH 11 only), 10 min, 20 min, and 30 min, the suspensions were filtered through nylon syringe filters (either 0.2 μm or 0.22 μm), and the filtrates were analyzed as described below. The dissolution experiments were performed in triplicate at every time point for each ligand except DOTA, for which 6 replicates were run for 20 min and 30 min time points at pH 8.
The filtered samples were diluted 6565-fold (65×101) with water and analyzed for barium content by GFAAS using the furnace method and instrument parameters discussed earlier above. Standards containing both ligand and barium at the same concentrations employed in the dissolution studies were prepared in either NaHCO3 (pH 8) or Na2CO3 (pH 11); water was substituted for Na2SO4. […] Water was used as the diluent. Following calibration, each sample was analyzed in triplicate and averaged. After the analysis of every three samples, a single measurement of water was made to ensure that there was no carryover of barium. After every three (pH 11) or six (pH 8) samples were analyzed, an independently-prepared Ba-L standard was analyzed a maximum of two times as a quality control check. If the measurement was not within ±10% of the known concentration of barium, the instrument was re-calibrated and the data between the failed calibration check and the previous calibration check was excluded. Data from each time point were averaged and the results are reported as the percentage of barium dissolved. The errors given correspond to 1 standard deviation.

[2] = Thermodynamic stability constants of Sr^2+ complexes by pH-potentiometry; format: binding; conditions: I = 0.1M KCl; for pSr (−log [M^2+]free): [M^2+] = 10^−6M, [L] = 10^−5M, pH 7.4; for log K′Sr (conditional stability constant): pH 7.4, 25° C., calculated from protonation and stability constants
Method: (§1) Potentiometric measurements were carried out using a titrator equipped with a combination electrode and an exchange unit with an automatic burette (10 mL). The titration vessel was fitted with a removable glass cell (˜70 mL) and was thermostated at 25° C. using a circulating water bath. CO2 was excluded from the vessel prior to and during the titrations using a small positive pressure of Ar that was passed through a solution of 30 wt % KOH. Carbonate-free KOH (˜0.1 M) was prepared by dissolving KOH pellets (semiconductor grade, 99.99% trace metals basis) in freshly boiled water (≥18 MΩ-cm) and was standardized by potentiometric titration against potassium hydrogen phthalate. Hydrochloric acid (0.1 M) was standardized against freshly prepared KOH. Titration solutions were maintained at a constant ionic strength of 0.1 M using KCl (≥99.5%) and were equilibrated for 15 minutes prior to the addition of titrant. Before every titration, the electrode was calibrated in terms of hydrogen ion concentration by titrating a solution of standardized HCl (5 mM) containing supporting electrolyte (95 mM) with standardized KOH (2 mL). Data within the pH ranges of 2.5-3.2 and 10.8-11.2 were analyzed using software to obtain the standard electrode potential (E0) and slope factor. Owing to the sharp rise in pH at the titration endpoint (pH 3.2-10.8), data obtained in this region are subject to significant error and were therefore excluded from the calibration analysis. A pKw value of 13.78 was taken from the literature (Baes, C. F.; Mesmer, R. E. The Hydrolysis of Cations; Wiley: New York, 1976).
(§2) ICP standards of calcium, strontium, and barium in dilute HNO3 were employed in the titrations. The exact amount of HNO3 was determined by potentiometric titration of each metal solution (1 mL), diluted to a known volume with H2O, with standardized KOH to pH ˜7; under these conditions, no precipitation of metal hydroxide species was observed. The data were analyzed using a Gran plot (Gran, G. Analyst 1952, 77, 661-671). Stability constants were measured for the alkaline earth complexes of macropa^2− and macropaquin^2− by adding standardized KOH to a solution (20 mL) containing ligand (0.02 mmol), metal (0.02 mmol), 1 M KCl (1.9 mmol), and a portion of 0.1 M HCl sufficient to bring the total acid content (HCl+HNO3) to 0.1 mmol. The titration method employed either a 0.1 mV/min or 0.2 mV/min drift limit with a maximum wait time of 300 seconds between addition of base and measurement. […] Data points (˜30-90) obtained over the pH ranges of 2.5-10.5 (Ba-macropa), 2.8-10.5 (Sr-macropa), 4.0-10.5 (Ca-macropa), 2.7-11.3 (Ba-macropaquin), and 4.0-11.3 (Sr- and Ca-macropaquin) were included in the refinements. These pH ranges reflect the portion of the titration curves in which metal binding is occurring. Using the protonation constants measured for each ligand, the stability constants (Equations 2-4, below) were calculated from the average of at least 3 independent titrations using appropriate software. Proton concentration was admitted as a refineable parameter. Ligand (L) concentration was taken as the averaged value obtained from the refinements of ligand-only titrations. The errors given for the stability constants correspond to one standard deviation.
(§3) The alkaline earth stability constants for macroquin-SO3^4− were determined using a system in which each ligand titration was paired with a ligand-metal titration. These pairwise titrations permitted the ligand concentration for the metal-ligand titrations to be known with reasonable certainty from the refinement of the ligand-only titrations. Immediately following a titration of the free ligand with HCl, metal ion (0.013 mmol) was added and the solution was equilibrated under Ar for 15 minutes before the addition of standardized KOH. The same titration method was employed as described above for macropa^2− and macropaquin^2−. […]

[3] = Thermodynamic stability constants of Ca^2+ complexes by pH-potentiometry; format: binding; conditions: I = 0.1M KCl; for pCa (−log [M^2+]free): [M^2+] = 10^−6M, [L] = 10^−5M, pH 7.4; for pCa (−log [M^2+]free) / log KCaL / log KCaHL: 25° C.; for log K′Ca (conditional stability constant): pH 7.4, 25° C., calculated from protonation and stability constants; for log KCaL / log KCaHL: pH-potentiometry
Method: as §1, §2, §3

SMILES	BaSO4 solubilized ([1]; pH 8, RT, 5 mM ligand, 10 minutes) [%]	BaSO4 dissolved ([1]; pH 8, RT, 5 mM ligand)	BaSO4 solubilized ([1]; pH 11, 5 min) [%]	pSr (−log [M^2+]free) ([2]; 25° C.)	log K′Sr (conditional stability constant) [2]	log KSrHL ([2]; pH-potentiometry, 25° C.)	log KSrL ([2]; pH-potentiometry, 25° C.)	pCa (−log [M^2+]free) [3]	log K′Ca (conditional stability constant) [3]	log KCaL [3]	BaSO4 dissolution ([1]; pH 11, 30 min) [%]	log KSrH2L ([2]; pH-potentiometry, 25° C.)	log KCaHL [3]
O=C(O)c1cccc(CN2CCOCCOCCN(Cc3cccc(C(=O)O)n3)CCOCCOCC2)n1 [macropa, 6,6-((1,4,10,13-tetraoxa-7,16-diazacyclooctadecane-7,16-diyl)bis(methylene))dipicolinic acid]	78	complete dissolution	> 95	10.02	9.07	3.35(8)	9.442(4)	6.54	5.42	5.79(1)			
O=C(O)CN1CCN(CC(=O)O)CCN(CC(=O)O)CCN(CC(=O)O)CC1 [DOTA, reference compound]		40%		9.30	8.35			11.29	10.34		75		
O=S(=O)(O)c1ccc(O)c2nc(CN3CCOCCOCCN(Cc4ccc5c(S(=O)(=O)O)ccc(O)c5n4)CCOCCOCC3)ccc12 [macroquin-SO3, 2,2′-((1,4,10,13-tetraoxa-7,16-diazacyclooctadecane-7,16-diyl)bis(methylene))bis(8-hydroxyquinoline-5-sulfonic acid)]				6.70	5.64	8.34(4)	8.62(2)	6.01	3.19	6.04(8)		6.920(3)	8.60(4)
O=C(O)c1cccc(CN2CCOCCOCCN(Cc3ccc4cccc(O)c4n3)CCOCCOCC2)n1 [macropaquin, 6-((16-((8-hydroxyquinolin-2-yl)methyl)-1,4,10,13-tetraoxa-7,16-diazacyclooctadecan-7-yl)methyl)picolinic acid]		95%		8.50	7.54	8.92(2)	9.19(5)	6.04	3.94	5.90(4)			8.59(2)
